In patent publication US20260232658A1, “AZETIDINYL BENZOXAZOLE COMPOUNDS AND THEIR USE AS MER AND AXL INHIBITORS” (DONG-A ST CO., LTD., priority 2022, published 2026):

Assays:
human MER (528-end) = target: T1, human MER (528-end) (Homo sapiens, UniProt Q12866); experiment: HTRF kinase activity biochemical assay, MER; conditions: recombinant kinase, 10 uM ATP, 30 minutes pre-incubation; read-out: HTRF MERTK IC50;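 note: phosphorylation of a biotin-tagged tyrosine kinase substrate detected by Eu3+-cryptate antibody and streptavidin-XL665 time-resolved fluorescence, read after 1 h at room temperature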
T1 construct: human MER (528-end); purchased Carnabio, Japan
T1 sequence (Q12866 528-999 limits assumed): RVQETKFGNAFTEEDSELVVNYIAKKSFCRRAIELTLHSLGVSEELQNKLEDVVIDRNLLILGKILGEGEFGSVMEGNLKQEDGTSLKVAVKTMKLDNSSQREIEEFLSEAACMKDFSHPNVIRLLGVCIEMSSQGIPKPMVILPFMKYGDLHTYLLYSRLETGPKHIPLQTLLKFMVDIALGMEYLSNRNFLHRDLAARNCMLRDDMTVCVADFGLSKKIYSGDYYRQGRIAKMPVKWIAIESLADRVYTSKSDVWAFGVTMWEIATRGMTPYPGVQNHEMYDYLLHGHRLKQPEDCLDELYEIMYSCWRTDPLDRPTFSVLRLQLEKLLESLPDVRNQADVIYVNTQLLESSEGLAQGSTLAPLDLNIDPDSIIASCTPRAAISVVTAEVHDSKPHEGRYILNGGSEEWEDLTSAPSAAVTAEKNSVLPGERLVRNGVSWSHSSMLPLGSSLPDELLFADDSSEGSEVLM

human AXL (473-end) = target: T2, human AXL (473-end) (Homo sapiens, UniProt P30530); experiment: HTRF kinase activity biochemical assay, AXL; conditions: recombinant kinase, 10 uM ATP, 30 minutes pre-incubation; read-out: HTRF AXL IC50;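 note: phosphorylation of a biotinylated tyrosine kinase substrate detected via Eu3+-cryptate anti-TK antibody and streptavidin-XL665, fluorescence read after a 1 h incubation at room temperature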
T2 construct: human AXL (473-end); purchased SignalChem, Canada
T2 sequence (P30530 473-894 limits assumed): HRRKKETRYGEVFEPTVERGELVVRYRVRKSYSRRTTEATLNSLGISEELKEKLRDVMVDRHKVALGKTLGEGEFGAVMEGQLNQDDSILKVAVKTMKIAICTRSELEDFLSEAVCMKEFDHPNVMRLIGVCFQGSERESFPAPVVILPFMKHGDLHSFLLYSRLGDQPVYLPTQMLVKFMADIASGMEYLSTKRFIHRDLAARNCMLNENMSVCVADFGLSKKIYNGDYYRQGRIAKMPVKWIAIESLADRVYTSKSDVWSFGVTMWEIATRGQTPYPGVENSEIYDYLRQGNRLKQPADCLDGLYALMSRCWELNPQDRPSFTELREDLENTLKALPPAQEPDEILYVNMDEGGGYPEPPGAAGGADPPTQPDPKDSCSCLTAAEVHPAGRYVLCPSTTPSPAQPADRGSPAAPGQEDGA

TYRO3 (455-end) = target: T3, TYRO3 (455-end) (Homo sapiens, UniProt Q06418); experiment: HTRF kinase activity biochemical assay, TYRO3; conditions: recombinant kinase, 10 uM ATP, 30 minutes pre-incubation; read-out: HTRF TYRO IC50;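 note: biotinylated tyrosine kinase substrate phosphorylation detected via streptavidin-XL665 and Eu3+-cryptate anti-phospho antibody time-resolved fluorescence, read after 1 h detection at room temperature, 384-well format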
T3 construct: TYRO3 (455-end); purchased SignalChem, Canada
T3 sequence (Q06418 455-890 limits assumed): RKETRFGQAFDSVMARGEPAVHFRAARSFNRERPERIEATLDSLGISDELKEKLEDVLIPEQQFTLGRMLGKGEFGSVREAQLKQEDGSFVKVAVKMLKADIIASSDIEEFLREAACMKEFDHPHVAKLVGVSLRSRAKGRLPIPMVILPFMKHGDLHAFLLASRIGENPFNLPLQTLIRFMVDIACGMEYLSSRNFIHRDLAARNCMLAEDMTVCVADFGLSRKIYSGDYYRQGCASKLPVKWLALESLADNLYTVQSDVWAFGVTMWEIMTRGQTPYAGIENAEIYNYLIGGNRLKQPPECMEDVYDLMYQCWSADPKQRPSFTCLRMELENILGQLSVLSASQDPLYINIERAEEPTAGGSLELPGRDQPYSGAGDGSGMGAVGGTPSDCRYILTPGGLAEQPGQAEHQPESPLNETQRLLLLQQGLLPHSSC

SMILES | IC50 (human MER (528-end)) [nM] | IC50 (human AXL (473-end)) [nM] | IC50 (TYRO3 (455-end)) [nM]
Cn1cc(Nc2ncc(C3CN(c4nc5ccc(Br)cc5o4)C3)nc2C(N)=O)cn1 [Example 6A, 6-[1-(6-bromo-1,3-benzoxazol-2-yl)azetidin-3-yl]-3-[(1-methyl-1H-pyrazol-4-yl)amino]pyrazine-2-carboxamide] | < 1 | 4 | 60
COCCCc1ccc2nc(N3CC(c4cnc(Nc5cnn(C)c5)c(C(N)=O)n4)C3)oc2c1 [Example 33, 6-{1-[6-(3-methoxypropyl)-1,3-benzoxazol-2-yl]azetidin-3-yl}-3-[(1-methyl-1H-pyrazol-4-yl)amino]pyrazine-2-carboxamide] | 1 | 2 | 130
CN1CCCC(Oc2ccc3nc(N4CC(c5cnc(Nc6cnn(C)c6)c(C(N)=O)n5)C4)oc3c2)C1=O (stereo not drawn) [Example 76, 6-(1-{6-[(1-methyl-2-oxopiperidin-3-yl)oxy]-1,3-benzoxazol-2-yl}azetidin-3-yl)-3-[(1-methyl-1H-pyrazol-4-yl)amino]pyrazine-2-carboxamide] | < 1 | 2 | 240
Cn1cc(Nc2ccc(C3CN(c4nc5ccc(O)cc5o4)C3)nc2C(N)=O)cn1 [Example 84A, 6-[1-(6-hydroxy-1,3-benzoxazol-2-yl)azetidin-3-yl]-3-[(1-methyl-1H-pyrazol-4-yl)amino]pyridine-2-carboxamide] | 14 | 33 | 2070
Cn1cc(Nc2ccc(C3CN(c4nc5ccc(OCC(C)(C)OP(=O)(O)O)cc5o4)C3)nc2C(N)=O)cn1 [Example 106, 1-{[2-(3-{6-carbamoyl-5-[(1-methyl-1H-pyrazol-4-yl)amino]pyridin-2-yl}azetidin-1-yl)-1,3-benzoxazol-6-yl]oxy}-2-methylpropan-2-yl dihydrogen phosphate] | 1.8 | 6 | 1070
NC(=O)c1nc(C2CN(c3nc4ccc(F)cc4o3)C2)cnc1Nc1cnn(CC(O)CO)c1 (stereo not drawn) [Example 36, 3-{[1-(2,3-dihydroxypropyl)-1H-pyrazol-4-yl]amino}-6-[1-(6-fluoro-1,3-benzoxazol-2-yl)azetidin-3-yl]pyrazine-2-carboxamide] | 1 | 9 | 170
Cn1cc(Nc2ncc(C3CN(c4nc5ccc(OCC6CC6)cc5o4)C3)nc2C(N)=O)cn1 [Example 23, 6-{1-[6-(cyclopropylmethoxy)-1,3-benzoxazol-2-yl]azetidin-3-yl}-3-[(1-methyl-1H-pyrazol-4-yl)amino]pyrazine-2-carboxamide] | < 1 | < 1 | 8
Cn1cc(Nc2ncc(C3CN(c4nc5ccc(C6=CCCCC6)cc5o4)C3)nc2C(N)=O)cn1 [Example 6, 6-{1-[6-(cyclohex-1-en-1-yl)-1,3-benzoxazol-2-yl]azetidin-3-yl}-3-[(1-methyl-1H-pyrazol-4-yl)amino]pyrazine-2-carboxamide] | < 1 | 1.04 | 72
Cc1ncc(-c2ccc3nc(N4CC(c5cnc(Nc6cnn(C)c6)c(C(N)=O)n5)C4)oc3c2)s1 [Example 99, 3-[(1-methyl-1H-pyrazol-4-yl)amino]-6-{1-[6-(2-methyl-1,3-thiazol-5-yl)-1,3-benzoxazol-2-yl]azetidin-3-yl}pyrazine-2-carboxamide] | < 1 | 1.6 | 24
CC(C)(O)CCOc1ccc2nc(N3CC(c4cnc(Nc5cnn(CC(C)(C)O)c5)c(C(N)=O)n4)C3)oc2c1 [Example 96, 6-{1-[6-(3-hydroxy-3-methylbutoxy)-1,3-benzoxazol-2-yl]azetidin-3-yl}-3-{[1-(2-hydroxy-2-methylpropyl)-1H-pyrazol-4-yl]amino}pyrazine-2-carboxamide] | 3 | 12 | 1610
Cn1cnc(COc2ccc3nc(N4CC(c5cnc(Nc6cnn(C)c6)c(C(N)=O)n5)C4)oc3c2)c1 [Example 98, 6-(1-{6-[(1-methyl-1H-imidazol-4-yl)methoxy]-1,3-benzoxazol-2-yl}azetidin-3-yl)-3-[(1-methyl-1H-pyrazol-4-yl)amino]pyrazine-2-carboxamide] | 1.1 | 7 | 1280
COCCOc1ccc(-c2ccc3nc(N4CC(c5cnc(Nc6cnn(C)c6)c(C(N)=O)n5)C4)oc3c2)cc1 [Example 100, 6-(1-{6-[4-(2-methoxyethoxy)phenyl]-1,3-benzoxazol-2-yl}azetidin-3-yl)-3-[(1-methyl-1H-pyrazol-4-yl)amino]pyrazine-2-carboxamide] | 1 | 4 | 120
NC(=O)c1nc(C2CN(c3nc4ccccc4o3)C2)cnc1Nc1cn[nH]c1 [Example 14, 6-[1-(1,3-benzoxazol-2-yl)azetidin-3-yl]-3-[(1H-pyrazol-4-yl)amino]pyrazine-2-carboxamide] | 8 | 14 | 490
CO[C@H]1CCN(C(=O)Cc2ccc3nc(N4CC(c5cnc(Nc6cnn(C)c6)c(C(N)=O)n5)C4)oc3c2)C1 [Example 70, 6-[1-(6-{2-[(3S)-3-methoxypyrrolidin-1-yl]-2-oxoethyl}-1,3-benzoxazol-2-yl)azetidin-3-yl]-3-[(1-methyl-1H-pyrazol-4-yl)amino]pyrazine-2-carboxamide] | 3 | 20 | > 12500
Cn1cc(Nc2ccc(C3CN(c4nc5ccc(Oc6cccnn6)cc5o4)C3)nc2C(N)=O)cn1 [Example 103, 3-[(1-methyl-1H-pyrazol-4-yl)amino]-6-(1-{6-[(pyridazin-3-yl)oxy]-1,3-benzoxazol-2-yl}azetidin-3-yl)pyridine-2-carboxamide] | < 1 | 3 | 710
Cn1cc(Nc2ncc(C3CN(c4nc5ccc(OCC(=O)C6CC6)cc5o4)C3)nc2C(N)=O)cn1 [Example 87, 6-{1-[6-(2-cyclopropyl-2-oxoethoxy)-1,3-benzoxazol-2-yl]azetidin-3-yl}-3-[(1-methyl-1H-pyrazol-4-yl)amino]pyrazine-2-carboxamide] | 1 | 5 | 330
Cc1ccc2nc(N3CC(c4cnc(Nc5cnn(CCO)c5)c(C(N)=O)n4)C3)oc2c1 [Example 54, 3-{[1-(2-hydroxyethyl)-1H-pyrazol-4-yl]amino}-6-[1-(6-methyl-1,3-benzoxazol-2-yl)azetidin-3-yl]pyrazine-2-carboxamide] | 5 | 23 | 620
Cn1cc(Nc2ncc(C3CN(c4nc5ccc(-c6ccc(O)cc6)cc5o4)C3)nc2C(N)=O)cn1 [Example 88, 6-{1-[6-(4-hydroxyphenyl)-1,3-benzoxazol-2-yl]azetidin-3-yl}-3-[(1-methyl-1H-pyrazol-4-yl)amino]pyrazine-2-carboxamide] | < 1 | 3 | 51
COCCn1cc(Nc2ncc(C3CN(c4nc5ccccc5o4)C3)nc2C(N)=O)cn1 [Example 29, 6-[1-(1,3-benzoxazol-2-yl)azetidin-3-yl]-3-{[1-(2-methoxyethyl)-1H-pyrazol-4-yl]amino}pyrazine-2-carboxamide] | 5 | 10 | 340
COCCn1cc(-c2ccc3nc(N4CC(c5cnc(Nc6cnn(C)c6)c(C(N)=O)n5)C4)oc3c2)cn1 [Example 91, 6-(1-{6-[1-(2-methoxyethyl)-1H-pyrazol-4-yl]-1,3-benzoxazol-2-yl}azetidin-3-yl)-3-[(1-methyl-1H-pyrazol-4-yl)amino]pyrazine-2-carboxamide] | 2 | 4 | 1430
